System: Plasmodium berghei
Assay: Luciferase/luciferin-expressing antifolate-resistant parasites were used to infect a culture of HepG2 cells that were pre-incubated with compounds. Infected hepatocytes emit light due to the luciferase reaction. Assay results are presented as the percent inhibition of light emission compared to control. […]
Format: functional
Settings: sporozoite; for IC90: read-out: LUCIFERASE INFECTION ASSAY - IC90
[1] = read-out: LUCIFERASE INFECTION ASSAY - IC50

Row | Compound | IC50 [1] [µM] | IC90 [µM] | other results
1 | COc1ccc(-c2nnc(SCC(=O)c3[nH]c(C)c(C(C)=O)c3C)n2C2CCCCC2C)cc1 (stereo not drawn) | > 10 | > 10 | 
2 | c1ccc(-c2cc3c(NCCCN4CCN(c5ncccn5)CC4)ncnc3s2)cc1 |  | 4.71 | IC50 (HEPG2TOX_HILL_SLOPE 0.225, HEPG2TOX_R_SQUARED 0.56, PBLUC_HILL_SLOPE 1.89, PBLUC_R_SQUARED 0.636, read-out: LUCIFERASE INFECTION ASSAY - IC50): 1.47 µM
3 | Cc1cc(=O)nc(N/N=C2/CCc3ccccc3C2)[nH]1 | 5.6 | > 10 | 
4 | N#Cc1ccc(NC(=O)Nc2ccc(C#N)cc2)cc1 | 3.52 | 4.08 | 
5 | COc1cc2c(C#N)c(N3CCN(c4ccccc4OC)CC3)nc(N)c2c(N)n1 |  | 4.7 | IC50 (HEPG2TOX_HILL_SLOPE 3.01, HEPG2TOX_R_SQUARED 0.942, PBLUC_HILL_SLOPE 1.46, PBLUC_R_SQUARED 0.909, read-out: LUCIFERASE INFECTION ASSAY - IC50): 1.04 µM
6 | NC(Cc1ccc(Cl)cc1)c1csc(Nc2ncccn2)n1 (stereo not drawn) |  | 5.31 | IC50 (HEPG2TOX_HILL_SLOPE 6.68, HEPG2TOX_R_SQUARED 0.347, PBLUC_HILL_SLOPE 658, PBLUC_R_SQUARED 0.395, read-out: LUCIFERASE INFECTION ASSAY - IC50): 5.29 µM
7 | O=S(=O)(c1cc(C(F)(F)F)cc(C(F)(F)F)c1)N1CCc2c([nH]c3ccccc23)C1C(F)(F)F (stereo not drawn) |  | > 6.39 | IC50 (PBLUC_HILL_SLOPE 1.65, PBLUC_R_SQUARED 0.099, read-out: LUCIFERASE INFECTION ASSAY - IC50): 5.02 µM
8 | CC(C)NC(=O)N1CCCC(C(=O)Nc2nc3c(ccc4ccccc43)s2)C1 (stereo not drawn) |  | > 10 | IC50 (PBLUC_HILL_SLOPE 2.07, PBLUC_R_SQUARED 0.824, read-out: LUCIFERASE INFECTION ASSAY - IC50): 4.39 µM
9 | O=C1OC(C23CC4CC(CC(C4)C2)C3)=N/C1=C\c1ccc(N2CCOCC2)cc1 | > 10 | > 10 | 
10 | Nc1ccc(-c2cn3c(-c4ccc(O)cc4)cnc3cn2)cn1 |  | > 10.9 | IC50 (PBLUC_HILL_SLOPE 11.6, PBLUC_R_SQUARED 0.257, read-out: LUCIFERASE INFECTION ASSAY - IC50): 10.2 µM
11 | CSc1nnc(Sc2ncc([N+](=O)[O-])s2)s1 |  | > 11.3 | IC50 (FFLUC_HILL_SLOPE 11.6, FFLUC_R_SQUARED 0.224, HEPG2TOX_HILL_SLOPE 8.93, HEPG2TOX_R_SQUARED 0.0924, PBLUC_HILL_SLOPE 12.6, PBLUC_R_SQUARED 0.322, read-out: LUCIFERASE INFECTION ASSAY - IC50): 10 µM
12 | Cc1ccc(/C=C(\C#N)c2nc(=O)c3c4c(sc3[nH]2)CC(C)CC4)o1 (stereo not drawn) | > 10 | > 10 | 
13 | CN(C)c1ccc(NC(=O)N2[C@@H]3CC[C@@H](C3)[C@H]2c2nc3cccc(OCc4ccc(F)cc4)c3[nH]2)cc1 |  | > 10 | IC50 (PBLUC_HILL_SLOPE 11.3, PBLUC_R_SQUARED 0.0257, read-out: LUCIFERASE INFECTION ASSAY - IC50): > 10 µM
14 | COc1cc(-c2cnc(N)c(-c3ccc(F)c(Cl)c3)c2)ccc1O |  | > 9.57 | IC50 (PBLUC_HILL_SLOPE 10.3, PBLUC_R_SQUARED 0.243, read-out: LUCIFERASE INFECTION ASSAY - IC50): 8.4 µM
15 | c1csc(-c2cnc3sc(NCCc4ccncc4)nn23)c1 |  | > 10.1 | IC50 (FFLUC_HILL_SLOPE 0.665, FFLUC_R_SQUARED 0.0104, HEPG2TOX_HILL_SLOPE 4.1, HEPG2TOX_R_SQUARED 0.712, read-out: LUCIFERASE INFECTION ASSAY - IC50): > 10.1 µM
16 | COc1ccc(S(=O)(=O)N(C)CC2COc3ccccc3O2)cc1 (stereo not drawn) | > 10 | > 10 | 
17 | CN1C(=O)N(CCc2ccccc2)C(=O)C12CCN(Cc1ccc3c(c1)Cc1ccccc1-3)CC2 | 6.49 | > 7.09 | 
18 | CC(C)(C)c1cc(C(=O)OCC(=O)N2CCCc3ccccc32)cc(C(C)(C)C)c1 |  | 9.87 | IC50 (FFLUC_HILL_SLOPE 12.2, FFLUC_R_SQUARED 0.329, PBLUC_HILL_SLOPE 3.02, PBLUC_R_SQUARED 0.491, read-out: LUCIFERASE INFECTION ASSAY - IC50): 4.77 µM
19 | CC(C)c1cccc(-c2nc3ccnc(NCc4ccccn4)c3[nH]2)c1 |  | > 10 | IC50 (HEPG2TOX_HILL_SLOPE 1.38, HEPG2TOX_R_SQUARED 0.883, PBLUC_HILL_SLOPE 3.5, PBLUC_R_SQUARED 0.343, read-out: LUCIFERASE INFECTION ASSAY - IC50): 6.01 µM
20 | CN(CC(=O)Nc1ccc(Cl)c(S(=O)(=O)N2CCOCC2)c1)C(=O)C1CCCO1 (stereo not drawn) | > 10 | > 10 | 
21 | COC(=O)c1c(NC(=O)c2ccoc2)c2cc(NCC3CC=CCC3)cnc2n1CC(C)C (stereo not drawn) |  | > 7.32 | IC50 (FFLUC_HILL_SLOPE 3.67, FFLUC_R_SQUARED 0.106, read-out: LUCIFERASE INFECTION ASSAY - IC50): > 7.32 µM
22 | CCc1sc(C(=O)Nc2ccc(F)c(Cl)c2)cc1C |  | 8.57 | IC50 (PBLUC_HILL_SLOPE 228, PBLUC_R_SQUARED 0.104, read-out: LUCIFERASE INFECTION ASSAY - IC50): 8.49 µM

Row | Compound | IC50 [1] [µM] | IC90 [µM] | other results
23 | COc1ccccc1CNc1cccc2cnccc12 | > 10 | > 10 | 
24 | Cc1ccccc1-c1cn2c(-c3ccc4ncccc4c3)cnc2cn1 |  | 0.015 | IC50 (HEPG2TOX_HILL_SLOPE 0.237, HEPG2TOX_R_SQUARED 0.401, PBLUC_HILL_SLOPE 15.7, PBLUC_R_SQUARED 0.693, read-out: LUCIFERASE INFECTION ASSAY - IC50): 0.0131 µM
25 | Cn1c(=O)/c(=C\c2cn(-c3ccccc3)nc2-c2ccccc2)s/c1=C\C(=O)C(C)(C)C |  | > 10 | IC50 (FFLUC_HILL_SLOPE 11.8, FFLUC_R_SQUARED 0.797, read-out: LUCIFERASE INFECTION ASSAY - IC50): > 10 µM
26 | COCCN(Cc1nc(=O)c2ccccc2[nH]1)C(=O)C1=NN(c2ccccc2)C(c2ccccc2)C1 (stereo not drawn) | > 10 | > 10 | 
27 | CCOc1cc(N2CCOCC2)c(OCC)cc1NC(=O)c1cc(Cl)c(OC)c(OC)c1 | > 10 | > 10 | 
28 | CCCc1noc(CCC(=O)Nc2nc3cc4c(cc3s2)OCCO4)n1 | > 10 | > 10 | 
29 | COc1ccc(N2CCN(c3nc(Nc4cc(C)nn4-c4ccccc4)c(Cl)cc3Cl)CC2)cc1 |  | > 10 | IC50 (HEPG2TOX_HILL_SLOPE 10.1, 8.63, HEPG2TOX_R_SQUARED 0.279, 0.753, PBLUC_HILL_SLOPE 15.1, PBLUC_R_SQUARED 0.229, read-out: LUCIFERASE INFECTION ASSAY - IC50): 9.89 µM
30 | COc1ccc(Nc2ccnc3cc(Cl)ccc23)cc1OC | 7.03 | > 10 | 
31 | Cc1ccc(-n2nc(C)c3c(C(=O)N4CCC(C)CC4)cc(-c4ccncc4)nc32)cc1 | > 10 | > 10 | 
32 | Cc1cc(-c2cc(C(=O)Nc3nnc(C(F)(F)F)[nH]3)c3cnn(C(C)C)c3n2)c(C)s1 |  | > 10 | IC50 (HEPG2TOX_HILL_SLOPE 1.32, HEPG2TOX_R_SQUARED 0.884, PBLUC_HILL_SLOPE 1.68, PBLUC_R_SQUARED 0.6, read-out: LUCIFERASE INFECTION ASSAY - IC50): 3.79 µM
33 | FC(F)(F)c1cc(Nc2nc(-c3cc(-c4ccc(Cl)cc4Cl)no3)cs2)cc(C(F)(F)F)c1 | > 6.29 | > 6.29 | 
34 | CCOC(=O)N1CCC(NCC(O)COc2ccc(C(C)(C)C)cc2)CC1 (stereo not drawn) |  | > 10 | IC50 (PBLUC_HILL_SLOPE 1.54, PBLUC_R_SQUARED 0.688, read-out: LUCIFERASE INFECTION ASSAY - IC50): 4.08 µM
35 | CCCn1c(C)cc(/C=C(\C#N)C(=O)Nc2ccc3c(c2)OCO3)c1C |  | 2.3 | IC50 (HEPG2TOX_HILL_SLOPE 1.46, HEPG2TOX_R_SQUARED 0.846, PBLUC_HILL_SLOPE 2.22, PBLUC_R_SQUARED 0.625, read-out: LUCIFERASE INFECTION ASSAY - IC50): 0.857 µM
36 | O=C(Nc1ccc(C(OC(=O)c2ccccc2)(C(F)(F)F)C(F)(F)F)cc1)c1ccccc1 | > 10 | > 10 | 
37 | CC1Sc2ccc(C(=O)Nc3ccnn3Cc3cccc(Cl)c3Cl)cc2NC1=O (stereo not drawn) | > 10 | > 10 | 
38 | CCN1CCN(c2ccc(NC(=O)c3csc(COc4ccc(F)cc4)n3)c(C)c2)CC1 |  | 4.43 | IC50 (PBLUC_HILL_SLOPE 19.9, PBLUC_R_SQUARED 0.58, read-out: LUCIFERASE INFECTION ASSAY - IC50): 3.97 µM
39 | Cc1ccc(-c2cnc3ccc(NC4CCOCC4)nn23)cc1 | 3.16 | 10.4 | 
40 | COc1ccc(C(C)C)cc1-c1cnc(N)c(-c2ccc(O)cc2)c1 |  | 3.69 | IC50 (HEPG2TOX_HILL_SLOPE 2.7, HEPG2TOX_R_SQUARED 0.932, PBLUC_HILL_SLOPE 18.7, PBLUC_R_SQUARED 0.395, read-out: LUCIFERASE INFECTION ASSAY - IC50): 3.28 µM
41 | Cc1[nH]c2c(-c3ccccc3)c(C(F)(F)F)nn2c(=O)c1Cc1ccccc1 | 7.44 | > 8.61 | 
42 | CCCc1oc2c(cc(NS(=O)(=O)c3ccc(Cl)cc3)c3ccccc32)c1C(=O)OCC |  | > 10 | IC50 (PBLUC_HILL_SLOPE 2.19, PBLUC_R_SQUARED 0.549, read-out: LUCIFERASE INFECTION ASSAY - IC50): 5.77 µM
43 | Cc1ccc(S(=O)(=O)/N=C2\C=C3N(CCO)CCOC3(O)c3ccccc32)c(C)c1 (stereo not drawn) |  | 6.56 | IC50 (FFLUC_HILL_SLOPE 0.405, FFLUC_R_SQUARED 0.0273, HEPG2TOX_HILL_SLOPE 10.4, HEPG2TOX_R_SQUARED 0.538, PBLUC_HILL_SLOPE 3.34, PBLUC_R_SQUARED 0.51, read-out: LUCIFERASE INFECTION ASSAY - IC50): 3.4 µM
44 | c1ccc(C(Nc2ncnc3sccc23)c2cccs2)cc1 (stereo not drawn) |  | > 10 | IC50 (HEPG2TOX_HILL_SLOPE 2.82, HEPG2TOX_R_SQUARED 0.952, PBLUC_HILL_SLOPE 3.44, PBLUC_R_SQUARED 0.151, read-out: LUCIFERASE INFECTION ASSAY - IC50): 7.24 µM
